Laboratory results published in patent publication US9353134B2, “Silicon-containing carboxylic acid derivative” (KEMPHYS LTD., priority 2012, dated 2016).

C[Si](C)(CC(CN)CC(=O)O)C1CC1 (stereo not shown)
melting point: 151.5 to 153 °C
